15 molecules from ChEMBL document CHEMBL3124868, “Design, synthesis, pharmacological evaluation, QSAR analysis, molecular modeling and ADMET of novel donepezil-indolyl hybrids as multipotent cholinesterase/monoamine oxidase inhibitors for the potential treatment of Alzheimer's disease” (Eur J Med Chem, 2014) can be followed below.

Where only a bound is given, the exact number is not on record here.

Assay [1] addresses T1, Amine oxidase [flavin-containing] B (Homo sapiens, UniProt P27338).
T1 sequence (P27338 whole entry): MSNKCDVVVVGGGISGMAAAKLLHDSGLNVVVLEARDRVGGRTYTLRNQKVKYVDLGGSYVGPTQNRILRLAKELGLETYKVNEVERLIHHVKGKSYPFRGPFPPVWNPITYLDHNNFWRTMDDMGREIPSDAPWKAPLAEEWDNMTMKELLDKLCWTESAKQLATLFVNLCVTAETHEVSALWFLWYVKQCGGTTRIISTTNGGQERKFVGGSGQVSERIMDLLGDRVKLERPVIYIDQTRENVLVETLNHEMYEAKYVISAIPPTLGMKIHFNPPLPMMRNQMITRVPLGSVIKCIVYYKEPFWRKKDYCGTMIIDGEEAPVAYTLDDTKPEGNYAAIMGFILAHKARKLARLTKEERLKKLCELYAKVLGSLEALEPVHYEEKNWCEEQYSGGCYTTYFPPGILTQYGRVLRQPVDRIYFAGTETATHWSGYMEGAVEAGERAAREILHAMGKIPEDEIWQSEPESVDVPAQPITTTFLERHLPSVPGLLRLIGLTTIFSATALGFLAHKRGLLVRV
Briefly: Inhibition of human recombinant MAO-B using tyramine as substrate preincubated for 30 mins followed by substrate addition measured for 1 hr by fluorometric assay.

The target in assay [2] is T2, Amine oxidase [flavin-containing] A (Homo sapiens, UniProt P21397).
T2 sequence (P21397 whole entry): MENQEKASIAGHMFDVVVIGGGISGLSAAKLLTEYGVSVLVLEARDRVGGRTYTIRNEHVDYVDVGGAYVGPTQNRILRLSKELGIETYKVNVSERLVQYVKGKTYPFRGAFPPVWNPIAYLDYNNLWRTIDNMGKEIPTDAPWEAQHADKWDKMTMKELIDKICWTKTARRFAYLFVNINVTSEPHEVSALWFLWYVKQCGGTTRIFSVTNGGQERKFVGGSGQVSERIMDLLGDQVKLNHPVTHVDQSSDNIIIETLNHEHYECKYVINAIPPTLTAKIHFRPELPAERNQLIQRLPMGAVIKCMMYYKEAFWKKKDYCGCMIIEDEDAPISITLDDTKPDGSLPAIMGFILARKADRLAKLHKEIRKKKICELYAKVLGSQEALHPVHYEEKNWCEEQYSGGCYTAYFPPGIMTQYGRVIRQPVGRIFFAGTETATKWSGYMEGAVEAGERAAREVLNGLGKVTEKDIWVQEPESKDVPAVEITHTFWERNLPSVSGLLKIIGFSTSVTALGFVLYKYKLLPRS
As to the kind of experiment: Inhibition of human recombinant MAO-A using tyramine as substrate preincubated for 30 mins followed by substrate addition measured for 1 hr by fluorometric assay.

Assay [3] is described as follows: Selectivity ratio of IC50 for equine serum BuChE to IC50 for electric eel AChE.
Another assay concerns the target Cholinesterase (Equus caballus, UniProt P81908). Briefly: Inhibition of equine serum BuChE using butyrylthiocholine iodide as substrate preincubated for 20 mins followed by substrate addition measured after 25 mins by Ellman's method. On the technique in general: In Ellman's method for cholinesterases, released thiocholine reacts with DTNB.
The target in a further assay is Acetylcholinesterase (Electrophorus electricus, UniProt O42275). As to the kind of experiment: Inhibition of electric eel AChE using acetylthiocholine iodide as substrate preincubated for 20 mins followed by substrate addition measured after 5 mins by Ellman's method.
The species named for another assay is Homo sapiens. As to the kind of experiment: Selectivity ratio of IC50 for human recombinant MAO-B to IC50 for human recombinant MAO-A.

Acetylcholinesterase, sequence (O42275 whole entry): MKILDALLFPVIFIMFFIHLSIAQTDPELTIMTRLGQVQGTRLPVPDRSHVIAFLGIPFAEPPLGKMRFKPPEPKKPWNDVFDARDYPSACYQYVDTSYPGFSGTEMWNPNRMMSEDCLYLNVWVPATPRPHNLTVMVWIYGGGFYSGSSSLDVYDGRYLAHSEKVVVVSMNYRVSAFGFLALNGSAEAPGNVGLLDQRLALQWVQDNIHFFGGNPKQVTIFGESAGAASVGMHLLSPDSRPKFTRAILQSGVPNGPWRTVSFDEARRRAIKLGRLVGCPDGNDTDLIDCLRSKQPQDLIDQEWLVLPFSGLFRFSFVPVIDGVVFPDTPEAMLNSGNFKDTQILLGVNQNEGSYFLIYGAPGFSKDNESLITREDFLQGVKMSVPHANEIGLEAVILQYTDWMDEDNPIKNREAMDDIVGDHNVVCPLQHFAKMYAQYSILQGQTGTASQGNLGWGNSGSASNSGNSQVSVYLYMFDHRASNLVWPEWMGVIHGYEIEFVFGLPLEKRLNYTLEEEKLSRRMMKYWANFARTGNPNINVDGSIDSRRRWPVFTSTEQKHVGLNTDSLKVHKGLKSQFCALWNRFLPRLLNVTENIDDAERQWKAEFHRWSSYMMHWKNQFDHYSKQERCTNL
Cholinesterase, sequence (P81908 whole entry): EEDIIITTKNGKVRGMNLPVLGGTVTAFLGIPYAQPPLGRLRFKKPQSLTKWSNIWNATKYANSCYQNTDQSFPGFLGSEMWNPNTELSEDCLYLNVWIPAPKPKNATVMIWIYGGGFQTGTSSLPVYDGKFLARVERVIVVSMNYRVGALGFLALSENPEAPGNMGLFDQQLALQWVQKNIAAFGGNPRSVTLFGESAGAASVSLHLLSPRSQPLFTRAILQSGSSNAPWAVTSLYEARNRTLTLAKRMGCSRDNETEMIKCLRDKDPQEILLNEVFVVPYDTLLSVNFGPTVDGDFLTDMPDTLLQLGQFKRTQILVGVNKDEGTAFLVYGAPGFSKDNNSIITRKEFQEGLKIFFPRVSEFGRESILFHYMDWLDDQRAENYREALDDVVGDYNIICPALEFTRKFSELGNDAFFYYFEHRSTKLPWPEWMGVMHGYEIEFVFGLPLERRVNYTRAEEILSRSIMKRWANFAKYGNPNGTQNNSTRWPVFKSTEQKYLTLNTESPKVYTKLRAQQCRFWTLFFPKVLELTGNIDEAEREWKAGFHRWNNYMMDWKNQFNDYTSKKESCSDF

On to `Cn1c(CNc2ccccc2)cc2cc(OCCCC3CCN(Cc4ccccc4)CC3)ccc21`, for which the IC50 in assay [1] was > 100 µM; in assay [2] (read-out: IC50), > 100 µM; in assay [2] (read-out: pIC50 (converted)), 100 µM; against Cholinesterase, 0.85 µM; against Acetylcholinesterase, 84 nM. Also, the Ratio IC50 in assay [3] is 10; in the assay filed under Homo sapiens it was > 1.
Regarding `C#CCNC(=O)c1cc2cc(OCCCC3CCN(Cc4ccccc4)CC3)ccc2n1C`, the IC50 in assay [1] is > 100 µM; in assay [2] (read-out: IC50), > 100 µM; against Cholinesterase, > 100 µM; against Acetylcholinesterase it was 130 nM. The figures for the Ratio IC50 (in assay [3]; in the assay filed under Homo sapiens) were > 770 and > 1, respectively.
As to `Cn1c(CO)cc2cc(OCCCC3CCN(Cc4ccccc4)CC3)ccc21`, the IC50 in assay [1] was > 100 µM; in assay [2] (read-out: IC50) it was 4.26 µM; at Cholinesterase, > 100 µM; at Acetylcholinesterase, 240 nM. Moreover, the Ratio IC50 in assay [3] is > 416; in the assay filed under Homo sapiens, > 23.
Regarding `COc1ccc2c(c1)cc(C(=O)NCc1ccccc1)n2C`, the IC50 in assay [1] was > 100 µM; in assay [2] (read-out: IC50), > 100 µM; at Cholinesterase, > 100 µM; on Acetylcholinesterase, > 100000 nM. Besides, the Ratio IC50 (in assay [3]; in the assay filed under Homo sapiens) was > 1 each time.
As to `Cn1c(C(=O)O)cc2cc(OCCCC3CCN(Cc4ccccc4)CC3)ccc21`, the IC50 in assay [1] was > 100 µM; in assay [2] (read-out: IC50), > 100 µM; against Cholinesterase, > 100 µM; against Acetylcholinesterase, 400 nM. The Ratio IC50 in assay [3] was > 250; in the assay filed under Homo sapiens, > 1.
Consider `C=CCNCc1cc2cc(OCCCC3CCN(Cc4ccccc4)CC3)ccc2n1C`, for which the IC50 in assay [1] was determined as 15.3 µM; in assay [2] (read-out: IC50), 0.98 µM; on Cholinesterase, 0.46 µM; at Acetylcholinesterase, 140 nM. Also, the Ratio IC50 in assay [3] was 3.3; in the assay listed under Homo sapiens it was 15.6.
Regarding `Cn1c(CN2CCOCC2)cc2cc(OCCCC3CCN(Cc4ccccc4)CC3)ccc21`, the IC50 was > 100 µM in assay [1], 4.4 µM in assay [2] (read-out: IC50), 0.79 µM against Cholinesterase and 100 nM against Acetylcholinesterase. The Ratio IC50 in assay [3] was 7.9; in the assay filed under Homo sapiens it was > 22.7.
`Cn1c(C(=O)NCc2ccccc2)cc2cc(OCCCC3CCN(Cc4ccccc4)CC3)ccc21`: the IC50 in assay [1] was > 100 µM; in assay [2] (read-out: IC50) it was > 100 µM; on Cholinesterase, > 100 µM; against Acetylcholinesterase, > 100000 nM. Besides, the Ratio IC50 (in assay [3]; in the assay listed under Homo sapiens) was > 1 in each case.
Turning to `Cn1c(CNCc2ccccc2)cc2cc(OCCCC3CCN(Cc4ccccc4)CC3)ccc21`, the IC50 was > 100 µM in assay [1]; > 100 µM in assay [2] (read-out: IC50); 100 µM in assay [2] (read-out: pIC50 (converted)); 0.29 µM against Cholinesterase; 140 nM against Acetylcholinesterase. Besides, the Ratio IC50 is 2 in assay [3] and > 1 in the assay filed under Homo sapiens.
Regarding `Cn1c(C(=O)Nc2ccccc2)cc2cc(OCCCC3CCN(Cc4ccccc4)CC3)ccc21`, the IC50 is > 100 µM in assay [1], > 100 µM in assay [2] (read-out: IC50), > 100 µM on Cholinesterase and > 100000 nM against Acetylcholinesterase. Further, the Ratio IC50 (in assay [3]; in the assay listed under Homo sapiens) was > 1 in each case.
On to `C#CCN(C)Cc1cc2cc(OCCCC3CCN(Cc4ccccc4)CC3)ccc2n1C`, for which the IC50 in assay [2] (read-out: IC50) worked out at 0.0042 µM.
`COc1ccc2c(c1)cc(CNCc1ccccc1)n2C`: the IC50 in assay [1] was > 100 µM; in assay [2] (read-out: IC50), > 100 µM; in assay [2] (read-out: pIC50 (converted)) it was 100 µM; against Cholinesterase it was 22.9 µM; on Acetylcholinesterase it was 15200 nM. The Ratio IC50 in assay [3] was 1.5; in the assay listed under Homo sapiens, > 1.
As for `C#CCNCc1cc2cc(OCCCC3CCN(Cc4ccccc4)CC3)ccc2n1C`, the IC50 in assay [1] amounted to 0.15 µM; in assay [2] (read-out: IC50) it was 0.0055 µM; against Cholinesterase, 0.83 µM; at Acetylcholinesterase, 190 nM. The Ratio IC50 in assay [3] came out at 4.4; in the assay listed under Homo sapiens, 27.3.
For `Cn1c(C(=O)N2CCOCC2)cc2cc(OCCCC3CCN(Cc4ccccc4)CC3)ccc21`, the IC50 in assay [1] is > 100 µM; in assay [2] (read-out: IC50), > 100 µM; against Cholinesterase it was > 100 µM; against Acetylcholinesterase, 270 nM. Moreover, the results for the Ratio IC50 (in assay [3]; in the assay listed under Homo sapiens) were > 370 and > 1, respectively.
Consider `CCOC(=O)c1cc2cc(OCCCC3CCN(Cc4ccccc4)CC3)ccc2n1C`, for which the IC50 is > 100 µM in assay [1], 1.53 µM in assay [2] (read-out: IC50), > 100 µM against Cholinesterase and 270 nM on Acetylcholinesterase. Moreover, the Ratio IC50 in assay [3] is > 370; in the assay listed under Homo sapiens it was > 65.
